Test results taken from ChEMBL document CHEMBL1201862, “PubChem BioAssay data set” (2004).
The source made the active and inactive calls.

Legend:
[1] = target: Cytochrome P450 2C19 (Homo sapiens, UniProt P33261); test: Cytochrome panel assay with activity outcomes. Panel member name: p450-cyp2c19 Compounds with AC50 equal or less than 10 uM are considered active; assay type: functional
[2] = target: Cytochrome P450 3A4 (Homo sapiens, UniProt P08684);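 further: CYP3A4 tested as one member of a cytochrome P450 panel screen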
[3] = target: Cytochrome P450 2C9 (Homo sapiens, UniProt P11712)
[4] = target: Ras and Rab interactor 1/Tyrosine-protein kinase ABL1 (Homo sapiens, UniProt P00519+Q13671); assay type: functional;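 further: biochemical TR-FRET dose-response test measuring inhibition of binding between Rin1 and Abl proteins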
[5] = target: T1, Caspase-3 (Homo sapiens, UniProt P42574); assay type: functional;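 further: Dose-response selectivity test against caspase-3 for candidate inhibitors of sentrin-specific proteases (SENPs)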
T1 sequence (P42574 whole entry): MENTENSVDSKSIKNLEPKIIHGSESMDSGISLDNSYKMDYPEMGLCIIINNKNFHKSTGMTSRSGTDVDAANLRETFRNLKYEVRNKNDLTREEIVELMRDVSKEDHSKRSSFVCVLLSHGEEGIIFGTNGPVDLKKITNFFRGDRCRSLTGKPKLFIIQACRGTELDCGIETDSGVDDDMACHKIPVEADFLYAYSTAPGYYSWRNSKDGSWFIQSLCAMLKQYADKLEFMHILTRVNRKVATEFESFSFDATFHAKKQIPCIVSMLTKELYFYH

[6] = target: T2, Sentrin-specific protease 7 (Homo sapiens, UniProt Q9BQF6); assay type: functional;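 further: Luminescence-based dose-response confirmation of ultra-high-throughput screening hits, measuring inhibition of SENP7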
T2 sequence (Q9BQF6 whole entry): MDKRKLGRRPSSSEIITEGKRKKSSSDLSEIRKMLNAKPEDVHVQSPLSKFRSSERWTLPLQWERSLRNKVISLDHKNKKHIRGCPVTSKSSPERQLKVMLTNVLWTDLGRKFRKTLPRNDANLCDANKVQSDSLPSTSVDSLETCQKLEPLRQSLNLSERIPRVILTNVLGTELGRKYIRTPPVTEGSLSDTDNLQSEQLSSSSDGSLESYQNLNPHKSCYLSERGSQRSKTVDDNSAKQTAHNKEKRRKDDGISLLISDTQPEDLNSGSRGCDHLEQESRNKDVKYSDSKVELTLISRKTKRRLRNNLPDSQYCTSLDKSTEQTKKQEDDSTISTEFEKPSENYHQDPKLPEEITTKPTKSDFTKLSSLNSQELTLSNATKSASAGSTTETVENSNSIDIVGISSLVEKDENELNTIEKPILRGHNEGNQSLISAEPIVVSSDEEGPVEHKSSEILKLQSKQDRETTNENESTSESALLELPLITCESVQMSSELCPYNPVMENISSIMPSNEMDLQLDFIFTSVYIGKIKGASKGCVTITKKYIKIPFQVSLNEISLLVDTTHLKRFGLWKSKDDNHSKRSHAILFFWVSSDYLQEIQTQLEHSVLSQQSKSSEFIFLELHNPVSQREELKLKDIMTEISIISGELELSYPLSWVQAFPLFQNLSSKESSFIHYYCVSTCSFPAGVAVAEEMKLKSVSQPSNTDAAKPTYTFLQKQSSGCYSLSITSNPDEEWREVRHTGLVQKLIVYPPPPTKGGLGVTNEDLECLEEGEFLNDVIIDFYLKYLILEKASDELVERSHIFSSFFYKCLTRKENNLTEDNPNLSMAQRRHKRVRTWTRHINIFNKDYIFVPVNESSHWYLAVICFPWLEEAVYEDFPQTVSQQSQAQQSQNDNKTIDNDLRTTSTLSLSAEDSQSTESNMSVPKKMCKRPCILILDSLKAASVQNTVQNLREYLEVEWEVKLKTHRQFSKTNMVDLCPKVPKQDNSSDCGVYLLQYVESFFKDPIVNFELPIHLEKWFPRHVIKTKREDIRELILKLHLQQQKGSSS

[7] = target: T3, Sentrin-specific protease 6 (Homo sapiens, UniProt Q9GZR1); assay type: functional;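 further: Luminescence-based dose-response confirmatory assay of SENP6 inhibition, following up an ultra-high-throughput screen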
T3 sequence (Q9GZR1 whole entry): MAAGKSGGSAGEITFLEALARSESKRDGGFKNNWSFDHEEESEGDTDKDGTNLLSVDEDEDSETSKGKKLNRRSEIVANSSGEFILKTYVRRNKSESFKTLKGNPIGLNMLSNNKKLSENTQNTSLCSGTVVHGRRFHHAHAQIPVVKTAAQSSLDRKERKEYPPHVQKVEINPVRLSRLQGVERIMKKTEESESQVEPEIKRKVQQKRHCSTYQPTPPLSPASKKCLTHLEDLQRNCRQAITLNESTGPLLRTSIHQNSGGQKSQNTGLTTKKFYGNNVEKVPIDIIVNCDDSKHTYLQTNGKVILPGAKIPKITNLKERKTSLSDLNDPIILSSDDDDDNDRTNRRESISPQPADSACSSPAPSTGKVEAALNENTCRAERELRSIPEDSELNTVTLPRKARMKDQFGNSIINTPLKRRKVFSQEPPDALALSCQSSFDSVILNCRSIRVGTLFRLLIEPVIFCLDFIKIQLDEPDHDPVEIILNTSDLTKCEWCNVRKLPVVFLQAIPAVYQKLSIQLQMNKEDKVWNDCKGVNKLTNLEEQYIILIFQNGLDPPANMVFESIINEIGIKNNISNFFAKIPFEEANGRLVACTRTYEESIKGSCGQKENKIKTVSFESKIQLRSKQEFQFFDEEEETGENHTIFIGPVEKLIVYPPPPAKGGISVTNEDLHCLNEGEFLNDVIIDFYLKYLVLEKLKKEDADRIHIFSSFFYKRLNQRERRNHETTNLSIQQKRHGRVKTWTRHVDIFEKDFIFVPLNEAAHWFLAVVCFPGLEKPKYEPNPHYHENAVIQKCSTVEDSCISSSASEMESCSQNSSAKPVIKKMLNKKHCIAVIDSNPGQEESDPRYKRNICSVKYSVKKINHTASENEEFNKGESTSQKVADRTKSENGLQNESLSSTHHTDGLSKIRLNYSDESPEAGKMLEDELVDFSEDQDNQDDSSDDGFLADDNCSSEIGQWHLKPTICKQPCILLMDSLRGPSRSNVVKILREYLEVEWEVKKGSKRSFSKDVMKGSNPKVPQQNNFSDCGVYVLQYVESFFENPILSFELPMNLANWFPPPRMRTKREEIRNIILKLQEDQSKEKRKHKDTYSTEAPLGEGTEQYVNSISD

[8] = target: T4, Sentrin-specific protease 8 (Homo sapiens, UniProt Q96LD8); assay type: functional;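 further: luminescence read-out of SENP8 inhibition, dose-response confirmation following an ultra-high-throughput screen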
T4 sequence (Q96LD8 whole entry): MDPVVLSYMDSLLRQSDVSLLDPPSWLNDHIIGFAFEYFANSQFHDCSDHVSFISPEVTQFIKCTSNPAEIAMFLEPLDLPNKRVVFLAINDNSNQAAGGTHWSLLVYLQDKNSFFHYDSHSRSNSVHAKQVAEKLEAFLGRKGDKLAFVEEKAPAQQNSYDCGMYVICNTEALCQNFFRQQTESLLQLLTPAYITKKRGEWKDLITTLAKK

[9] = target: Peroxisome proliferator-activated receptor gamma/Nuclear receptor coactivator 1 (Homo sapiens, UniProt P37231); test: (§1) TR-FRET dose response biochemical High Throughput Screening assay for agonists of the steroid receptor coactivator 1 (SRC-1) recruitment by the peroxisome proliferator-activated receptor gamma (PPAR gamma): non-selective agonists. [Related pubchem assays (depositor defined):AID1300, AID1808, AID504735, AID631]; assay type: protein assay
[10] = target: Peroxisome proliferator-activated receptor gamma/Nuclear receptor coactivator 3 (Homo sapiens, UniProt P37231); test: as §1, with “3 (SRC-3)” for “1 (SRC-1)”, “assays: 1301 (Confirmation screen.), 1048 (Primary screen.)]” for “assays (depositor defined):AID1300, AID1808, AID504735, AID631]”; assay type: functional
[11] = target: Peroxisome proliferator-activated receptor gamma/Nuclear receptor coactivator 2 (Homo sapiens, UniProt P37231); test: TR-FRET dose response biochemical High Throughput Screening assay for agonists of the steroid receptor coactivator 2 (SRC-2) recruitment by the peroxisome proliferator-activated receptor gamma (PPAR gamma): non-selective agonists. [Related pubchem assays: 1297, 1032 ]; assay type: functional
[12] = system: P388/ADR; test: cells; assay type: functional; details: Mus musculus
[13] = system: SN12K1; test: cells; assay type: functional; details: Homo sapiens
[14] = system: P388; test: cells; assay type: functional; details: Mus musculus
[15] = inhibitors of intracellular T. cruzi replication, confirmation, NIH3T3 host cells, beta-gal luminescence (AID 2044); assay type: functional, cell-based;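 further: intracellular parasites grown in NIH/3T3 mouse fibroblasts as host cells; luminescent beta-galactosidase reporter signal from transgenic T. cruzi replicating inside host cells; inhibitors lower the luminescence signal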
[16] = cytotoxicity toward NIH3T3 fibroblasts, dose response, counter-screen, cell-based, ATP luminescence, mouse fibroblasts (AID 2010); assay type: functional;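 further: cells exposed to compound for about 90 hours before reading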

Chain of Cytochrome P450 3A4 (P08684 whole entry): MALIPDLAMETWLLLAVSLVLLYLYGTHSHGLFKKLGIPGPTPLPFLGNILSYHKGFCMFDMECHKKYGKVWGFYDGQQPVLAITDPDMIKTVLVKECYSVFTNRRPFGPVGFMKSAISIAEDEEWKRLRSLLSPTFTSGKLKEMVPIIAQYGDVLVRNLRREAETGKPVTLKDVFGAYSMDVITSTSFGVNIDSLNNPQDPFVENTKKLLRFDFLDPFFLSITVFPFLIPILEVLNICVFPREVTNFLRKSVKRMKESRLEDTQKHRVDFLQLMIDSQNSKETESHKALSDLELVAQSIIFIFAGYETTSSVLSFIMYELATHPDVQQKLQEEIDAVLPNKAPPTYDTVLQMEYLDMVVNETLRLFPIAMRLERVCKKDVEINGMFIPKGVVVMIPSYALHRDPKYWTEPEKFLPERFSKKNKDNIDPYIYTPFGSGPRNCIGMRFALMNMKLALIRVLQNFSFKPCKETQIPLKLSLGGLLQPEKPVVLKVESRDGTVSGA
Chain of Peroxisome proliferator-activated receptor gamma/Nuclear receptor coactivator 3 (P37231 whole entry): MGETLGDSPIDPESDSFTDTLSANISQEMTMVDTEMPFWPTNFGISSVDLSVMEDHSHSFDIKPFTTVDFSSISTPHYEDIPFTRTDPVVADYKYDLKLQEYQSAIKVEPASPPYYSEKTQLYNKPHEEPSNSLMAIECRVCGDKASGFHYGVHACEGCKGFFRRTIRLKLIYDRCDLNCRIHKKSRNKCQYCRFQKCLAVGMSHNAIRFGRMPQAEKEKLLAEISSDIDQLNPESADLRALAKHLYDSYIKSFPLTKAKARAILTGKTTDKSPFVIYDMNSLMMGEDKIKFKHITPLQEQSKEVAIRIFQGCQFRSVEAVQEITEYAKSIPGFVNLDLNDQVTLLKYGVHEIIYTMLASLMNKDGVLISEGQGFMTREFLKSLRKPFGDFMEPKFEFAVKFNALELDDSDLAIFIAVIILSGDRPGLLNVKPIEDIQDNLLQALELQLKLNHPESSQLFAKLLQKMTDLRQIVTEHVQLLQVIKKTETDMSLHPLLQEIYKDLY
Chain of Peroxisome proliferator-activated receptor gamma/Nuclear receptor coactivator 3 (Q9Y6Q9 whole entry, further chain): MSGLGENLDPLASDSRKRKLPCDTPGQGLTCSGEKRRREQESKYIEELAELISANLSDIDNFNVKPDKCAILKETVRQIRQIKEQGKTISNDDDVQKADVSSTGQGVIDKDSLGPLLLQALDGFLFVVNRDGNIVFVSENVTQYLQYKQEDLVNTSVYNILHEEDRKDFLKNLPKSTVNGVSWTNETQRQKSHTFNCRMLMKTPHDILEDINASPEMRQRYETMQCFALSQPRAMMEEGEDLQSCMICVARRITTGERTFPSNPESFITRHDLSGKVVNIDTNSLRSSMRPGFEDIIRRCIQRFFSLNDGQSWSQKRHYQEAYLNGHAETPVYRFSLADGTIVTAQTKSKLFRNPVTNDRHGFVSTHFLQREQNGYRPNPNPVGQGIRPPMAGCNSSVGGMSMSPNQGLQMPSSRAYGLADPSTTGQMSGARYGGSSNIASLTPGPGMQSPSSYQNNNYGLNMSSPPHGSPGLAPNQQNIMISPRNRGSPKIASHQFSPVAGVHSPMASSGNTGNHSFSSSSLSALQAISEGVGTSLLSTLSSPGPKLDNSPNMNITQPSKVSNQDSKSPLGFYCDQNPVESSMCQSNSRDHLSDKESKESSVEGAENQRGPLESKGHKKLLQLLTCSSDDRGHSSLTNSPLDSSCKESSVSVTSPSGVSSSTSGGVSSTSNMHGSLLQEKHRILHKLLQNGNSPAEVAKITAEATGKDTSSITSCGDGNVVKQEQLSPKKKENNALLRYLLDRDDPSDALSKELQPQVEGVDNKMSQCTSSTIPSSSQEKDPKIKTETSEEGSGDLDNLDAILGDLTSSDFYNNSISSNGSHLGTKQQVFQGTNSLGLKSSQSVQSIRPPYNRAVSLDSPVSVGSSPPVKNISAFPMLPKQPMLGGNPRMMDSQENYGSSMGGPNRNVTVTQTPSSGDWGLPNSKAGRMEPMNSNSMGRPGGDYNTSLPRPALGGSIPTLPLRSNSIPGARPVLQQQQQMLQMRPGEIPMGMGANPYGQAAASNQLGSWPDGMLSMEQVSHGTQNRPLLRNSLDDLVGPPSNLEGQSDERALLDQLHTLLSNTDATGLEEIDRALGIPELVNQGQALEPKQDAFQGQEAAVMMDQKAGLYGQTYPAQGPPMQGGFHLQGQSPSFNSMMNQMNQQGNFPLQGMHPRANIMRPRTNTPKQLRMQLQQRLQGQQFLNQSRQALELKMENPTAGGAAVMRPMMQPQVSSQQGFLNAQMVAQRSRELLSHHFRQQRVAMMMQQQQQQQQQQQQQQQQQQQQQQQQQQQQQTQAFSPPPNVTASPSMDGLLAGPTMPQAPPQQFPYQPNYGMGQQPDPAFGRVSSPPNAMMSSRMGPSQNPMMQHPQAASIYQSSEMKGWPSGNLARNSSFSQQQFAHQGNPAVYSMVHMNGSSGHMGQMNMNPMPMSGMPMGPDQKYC
Chain of Peroxisome proliferator-activated receptor gamma/Nuclear receptor coactivator 2 (P37231 whole entry): as the sequence (P37231 whole entry) above
Chain of Peroxisome proliferator-activated receptor gamma/Nuclear receptor coactivator 2 (Q15596 whole entry, further chain): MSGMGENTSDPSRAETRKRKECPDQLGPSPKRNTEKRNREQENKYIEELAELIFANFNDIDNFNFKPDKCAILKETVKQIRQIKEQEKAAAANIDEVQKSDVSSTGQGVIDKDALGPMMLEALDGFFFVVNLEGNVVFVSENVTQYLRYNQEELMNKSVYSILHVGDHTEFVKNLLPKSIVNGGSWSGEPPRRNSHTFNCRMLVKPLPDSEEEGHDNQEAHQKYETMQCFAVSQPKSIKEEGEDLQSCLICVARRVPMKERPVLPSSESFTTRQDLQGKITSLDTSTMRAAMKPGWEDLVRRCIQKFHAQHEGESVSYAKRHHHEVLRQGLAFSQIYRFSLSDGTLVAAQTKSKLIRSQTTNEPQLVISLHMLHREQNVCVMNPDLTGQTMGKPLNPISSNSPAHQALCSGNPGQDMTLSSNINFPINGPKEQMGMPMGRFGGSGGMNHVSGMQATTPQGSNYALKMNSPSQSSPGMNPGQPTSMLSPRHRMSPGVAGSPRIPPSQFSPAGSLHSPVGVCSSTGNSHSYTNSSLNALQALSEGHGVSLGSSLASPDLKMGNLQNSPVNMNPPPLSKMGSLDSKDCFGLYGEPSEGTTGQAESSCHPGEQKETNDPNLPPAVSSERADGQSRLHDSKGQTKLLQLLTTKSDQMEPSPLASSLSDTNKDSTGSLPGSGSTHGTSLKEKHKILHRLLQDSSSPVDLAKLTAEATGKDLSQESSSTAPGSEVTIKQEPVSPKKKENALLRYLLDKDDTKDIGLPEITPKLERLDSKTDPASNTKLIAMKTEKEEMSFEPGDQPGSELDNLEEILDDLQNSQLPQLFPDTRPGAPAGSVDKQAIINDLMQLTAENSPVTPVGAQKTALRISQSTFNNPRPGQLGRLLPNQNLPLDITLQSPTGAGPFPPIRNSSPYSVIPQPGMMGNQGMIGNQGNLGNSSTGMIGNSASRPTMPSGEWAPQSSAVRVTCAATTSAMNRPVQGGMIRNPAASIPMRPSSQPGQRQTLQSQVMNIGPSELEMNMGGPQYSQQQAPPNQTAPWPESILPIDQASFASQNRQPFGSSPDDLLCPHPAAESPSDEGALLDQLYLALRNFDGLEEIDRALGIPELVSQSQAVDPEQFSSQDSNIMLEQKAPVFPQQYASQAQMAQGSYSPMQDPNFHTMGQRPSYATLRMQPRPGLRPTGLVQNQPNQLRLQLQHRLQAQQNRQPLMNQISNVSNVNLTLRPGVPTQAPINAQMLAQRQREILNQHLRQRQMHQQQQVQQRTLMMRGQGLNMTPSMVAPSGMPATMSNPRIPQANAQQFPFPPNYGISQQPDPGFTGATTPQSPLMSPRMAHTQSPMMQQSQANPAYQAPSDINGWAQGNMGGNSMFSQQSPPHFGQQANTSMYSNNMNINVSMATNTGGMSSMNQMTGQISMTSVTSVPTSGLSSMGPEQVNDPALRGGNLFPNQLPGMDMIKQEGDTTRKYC
Chain of Cytochrome P450 2C19 (P33261 whole entry): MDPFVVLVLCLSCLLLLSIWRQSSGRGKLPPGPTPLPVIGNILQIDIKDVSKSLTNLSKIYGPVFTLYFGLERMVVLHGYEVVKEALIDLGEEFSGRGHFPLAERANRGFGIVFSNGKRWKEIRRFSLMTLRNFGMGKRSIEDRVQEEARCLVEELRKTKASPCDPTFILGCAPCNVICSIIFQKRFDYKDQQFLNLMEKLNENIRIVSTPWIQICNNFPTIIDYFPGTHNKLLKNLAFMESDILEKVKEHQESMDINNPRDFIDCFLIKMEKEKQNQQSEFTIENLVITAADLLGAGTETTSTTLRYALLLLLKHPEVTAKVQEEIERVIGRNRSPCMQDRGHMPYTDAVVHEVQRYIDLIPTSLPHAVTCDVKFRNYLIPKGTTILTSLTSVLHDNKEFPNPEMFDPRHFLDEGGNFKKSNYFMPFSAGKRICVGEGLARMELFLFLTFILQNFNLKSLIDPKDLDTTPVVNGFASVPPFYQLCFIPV

SMILES: CCCN(CCC)CCc1cccc2c1CC(=O)N2 [ROPINIROLE]
- AC50 [1]: inconclusive
- AC50 [2]: inconclusive
- AC50 [3]: inconclusive

SMILES: CSCCC(c1nnnn1C1CCCC1)N1CCC(n2c(O)nc3ccccc32)CC1 (stereo unspecified)
- IC50 [4]: 26.1 µM (inactive)

SMILES: COc1cccc(-c2nc3ccc([N+](=O)[O-])cc3o2)c1
- IC50 [5]: 2.52 µM (active)
- IC50 [6]: < 1.55 µM (active)
- IC50 [7]: > 100 µM (inactive)
- IC50 [8]: > 100 µM (inactive)

SMILES: O=C(Nc1ccc(Cl)cc1)C1=Cc2ccccc2OC1
- IC50 [5]: 26.5 µM (active)
- IC50 [6]: 5.5 µM (active)
- IC50 [7]: 9.3 µM (active)
- IC50 [8]: 10.1 µM (active)

SMILES: CCc1nc2cc(CC(=O)O)ccc2o1
- AC50 [1]: inconclusive
- AC50 [2]: inconclusive

SMILES: CCOC(=O)c1sc(NC(=O)c2ccco2)nc1-c1ccccc1
- EC50 [9]: 24.3 µM (inactive)
- EC50 [10]: > 79.4 µM (not active)
- EC50 [11]: 14.2 µM (not active)

SMILES: N[C@@H](CSCSC[C@H](N)C(=O)O)C(=O)O
- GI50 [12]: > 225 µM (inactive)
- GI50 [13]: > 225 µM (inactive)
- GI50 [14]: > 71.1 µM (inactive)

SMILES: Cc1cc2cc(CNC(=O)c3cc4ccccc4o3)ccc2n1C
- EC50 [9]: 10.6 µM (inactive)
- EC50 [10]: 19.2 µM (not active)
- EC50 [15]: 0.547 µM (active)
- EC50 [11]: 11.1 µM (not active)
- EC50 [16]: > 60 µM (not active)

SMILES: COc1ccc(C(=O)NC(=S)NCc2ccccc2)cc1
- AC50 [2]: inconclusive
